Experimental data published in ChEMBL document CHEMBL1156651, “Viridamides A and B, lipodepsipeptides with antiprotozoal activity from the marine cyanobacterium Oscillatoria nigro-viridis” (J Nat Prod, 2008).
Where a SMILES comes first, the peptide text is derived from it. [ ]: non-standard residue; d: D form. The star is where a group is joined. Hmpa(2S,3S) = CC[C@H](C)[C@H](O)C(=O)O; NMeI = CC[C@H](C)[C@H](NC)C(=O)O; NMeV = CN[C@H](C(=O)O)C(C)C; X1 = C#CCCCC(CCCC(=O)*)OC

Legend:
Format in all cases: functional, organism-based
Trypanosoma cruzi = assay: Antitrypanosomal activity against Trypanosoma cruzi Tulahuen C4 in vero cells assessed as intracellular growth inhibition of trypomastigote by beta-galactosidase reporter gene assay
Leishmania mexicana = assay: Antileishmanial activity against Leishmania mexicana promastigotes by DNA fluorescence method
Plasmodium falciparum = assay: Antimalarial activity against Plasmodium falciparum

SMILES | IC50 (Trypanosoma cruzi) | IC50 (Leishmania mexicana) | IC50 (Plasmodium falciparum)
CC1CS(=O)(=O)CCN1/N=C/c1ccc([N+](=O)[O-])o1 (stereo not given) [NIFURTIMOX] | 10000 nM |  | 
C#CCCCC(CCCC(=O)N(C)[C@H](C(=O)N[C@H](C(=O)N[C@H](C(=O)N(C)[C@H](C(=O)O[C@H](C(=O)N1CCC[C@H]1C(=O)OC)[C@@H](C)CC)C(C)C)C(C)C)C(C)C)[C@@H](C)CC)OC (stereo partly drawn) [VIRIDAMIDE A] (X1-[NMeI]VV[NMeV][Hmpa(2S,3S)]P-OMe) | 1100 nM | 1500 nM | 5800 nM
C[C@@H]1[C@H](O)[C@@H](C)/C=C/C=C/C=C/C=C/C=C/C=C/C=C/[C@H](O[C@@H]2O[C@H](C)[C@@H](O)[C@H](N)[C@@H]2O)C[C@@H]2O[C@](O)(C[C@@H](O)C[C@@H](O)[C@H](O)CC[C@@H](O)C[C@@H](O)CC(=O)O[C@H]1C)C[C@H](O)[C@H]2C(=O)O [AMPHOTERICIN B] |  | 100 nM | 
